Experimental findings from ChEMBL document CHEMBL5584341, “Discovery of Potent, Specific, and Orally Available NLRP3 Inflammasome Inhibitors Based on Pyridazine Scaffolds for the Treatment of Septic Shock and Peritonitis” (J Med Chem, 2024) are described below.

Data set [1] is described as follows: Half-life in BALB/c mouse at 5 mg/kg, po measured upto 24 hrs by LC-MS/MS analysis. The format is ADME, organism-based. The conditions noted are these: in vivo.
For the next data set, the target named is T1, Cytochrome P450 1A2 (Homo sapiens, UniProt P05177).
T1 sequence (P05177 whole entry): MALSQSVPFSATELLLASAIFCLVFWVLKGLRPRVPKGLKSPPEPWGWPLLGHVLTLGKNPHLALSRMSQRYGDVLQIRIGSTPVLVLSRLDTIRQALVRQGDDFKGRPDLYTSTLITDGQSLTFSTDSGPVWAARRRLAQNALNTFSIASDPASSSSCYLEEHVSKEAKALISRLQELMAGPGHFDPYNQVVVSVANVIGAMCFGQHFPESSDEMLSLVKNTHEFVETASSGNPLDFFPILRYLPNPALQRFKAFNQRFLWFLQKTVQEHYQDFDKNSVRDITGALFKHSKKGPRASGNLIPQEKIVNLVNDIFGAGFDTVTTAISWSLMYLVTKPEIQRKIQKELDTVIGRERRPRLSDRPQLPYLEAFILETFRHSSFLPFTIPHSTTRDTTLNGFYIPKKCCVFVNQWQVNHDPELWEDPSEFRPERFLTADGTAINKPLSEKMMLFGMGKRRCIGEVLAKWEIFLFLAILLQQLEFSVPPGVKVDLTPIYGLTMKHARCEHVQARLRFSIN
As to the kind of experiment: Inhibition of human CYP1A2 upto 10 uM relative to control. It is filed as ADME.

A short description of data set [2]: Inhibition of IL-1beta release in PMA-differentiated/ LPS and nigericin stimulated human THP-1 cells at 0.1 uM pretreated with LPS for 3 hrs followed by incubation with compound for 40 mins and later stimulated with nigericin for 40 mins by ELISA. The format is functional. The note with it: THP-1, 1.333 h, time 80 min. (In general: In an ELISA, binding on a coated surface is turned into a signal by an enzyme label.)

For data set [3], the target named is NLR family CARD domain-containing protein 4 (Mus musculus) (UniProt Q3UP24). As to the kind of experiment: Inhibition of flagellin stimulated NLRC4 inflammasome activation in mouse BMDMs assessed as reduction in IL-1beta secretion pretreated with LPS for 3 hrs followed by compound addition for 40 mins prior to flagellin stimulation for 6 hrs by Western blotting analysis. It is filed as cell-based. The conditions noted are these: BMDM, time 400.0 min. On the technique in general: Immunoblotting shows a protein as a band on a membrane.

Data set [4] concerns the target NACHT, LRR and PYD domains-containing protein 3 (Mus musculus) (UniProt Q8R4B8). The data set is described as follows: Inhibition of NLRP3 inflammasome activation in LPS/nigericin stimulated mouse BMDMs assessed as reduction in caspase-1 release pretreated with LPS for 3 hrs followed by compound addition for 40 mins prior to nigericin stimulation for 40 mins by Western blotting analysis. The format is cell-based. The conditions noted are these: BMDM, time 80.0 min.

Data set [5] in a line: Cmax in BALB/c mouse at 5 mg/kg, po measured upto 24 hrs by LC-MS/MS analysis. The note with it: in vivo. It is filed as ADME, organism-based.
Data set [6] in a line: Tmax in BALB/c mouse at 5 mg/kg, iv measured upto 24 hrs by LC-MS/MS analysis. The format is ADME, organism-based. The conditions noted are these: in vivo.
The target in data set [7] is NACHT, LRR and PYD domains-containing protein 3 (Mus musculus) (UniProt Q8R4B8). The data set is described as follows: Inhibition of NLRP3 inflammasome activation in LPS/nigericin stimulated mouse BMDMs assessed as effect on pro-caspase-1 expression pretreated with LPS for 3 hrs followed by compound addition for 40 mins prior to nigericin stimulation for 40 mins by Western blotting analysis. The format is cell-based. The conditions noted are these: BMDM, time 80.0 min.

The target of data set [8] is T2, Interferon-inducible protein AIM2 (Mus musculus) (UniProt Q91VJ1).
T2 sequence (whole entry): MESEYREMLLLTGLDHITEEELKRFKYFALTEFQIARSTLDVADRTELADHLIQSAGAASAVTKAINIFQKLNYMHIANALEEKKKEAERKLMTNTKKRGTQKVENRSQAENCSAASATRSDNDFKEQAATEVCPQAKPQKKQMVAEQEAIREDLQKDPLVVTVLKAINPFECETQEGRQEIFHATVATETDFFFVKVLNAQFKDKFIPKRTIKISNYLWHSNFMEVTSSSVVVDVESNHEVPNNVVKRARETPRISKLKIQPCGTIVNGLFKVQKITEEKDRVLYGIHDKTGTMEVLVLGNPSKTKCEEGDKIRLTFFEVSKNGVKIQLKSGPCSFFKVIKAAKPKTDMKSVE
The data set is described as follows: Inhibition of poly dA:dT stimulated AIM2 inflammasome activation in mouse BMDMs assessed as reduction in IL-1beta secretion at 0.1 to 10 uM pretreated with LPS for 3 hrs followed by compound addition for 40 mins prior to poly dA:dT stimulation for 6 hrs by ELISA. The note with it: BMDM, dose 0.1-10 µM, time 400.0 min. It is filed as cell-based.

Data set [9] addresses NACHT, LRR and PYD domains-containing protein 3 (Mus musculus) (UniProt Q8R4B8). The data set is described as follows: Inhibition of NLRP3 inflammasome activation in LPS/nigericin stimulated mouse BMDMs assessed as effect on ASC expression pretreated with LPS for 3 hrs followed by compound addition for 40 mins prior to nigericin stimulation for 40 mins by Western blotting analysis. The format is cell-based. The conditions noted are these: BMDM, time 80.0 min.

The nature of data set [10]: Oral bioavailability in BALB/c mouse at 5 mg/kg measured upto 24 hrs by LC-MS/MS analysis. The format is ADME, organism-based. The note with it: in vivo.
The next data set has as its system Mus musculus. As to the kind of experiment: Inhibition of MSU crystal induced peritonitis in BALB/c mouse assessed as reduction in neutrophil recruitment at 50 to 100 mg/kg, ip pretreated with LPS for 3 hrs followed by compound addition prior to MSU stimulation for 6 hrs by ELISA. The format is functional, organism-based. The note with it: dose 50-100 mg/kg.
In data set [11] the target is NACHT, LRR and PYD domains-containing protein 3 (Mus musculus) (UniProt Q8R4B8). The data set is described as follows: Inhibition of NLRP3 inflammasome activation in LPS stimulated mouse BMDMs assessed as reduction in IL-1beta release at 2 to 31.25 nM pretreated with LPS for 3 hrs followed by compound addition for 40 mins prior to ATP stimulation for 1 hr by ELISA. The format is cell-based. The conditions noted are these: BMDM, dose 2-31.25 nM, time 100.0 min.

Data set [12] can be described thus: Metabolic stability in human liver microsomes assessed as intrinsic clearance per g protein at 10 uM […] in presence of NADPH by LC-MS/MS analysis. It is filed as ADME, Microsome. For orientation: Liver microsomes are a subcellular fraction often used to study metabolism.
The test system of the next data set is THP-1. The data set is described as follows: Inhibition of nigericin induced ASC oligomerization in PMA differentiated human THP-1 cells at 5 to 80 nM pretreated with LPS for 3 hrs followed by compound addition for 40 mins prior to nigericin stimulation for 40 mins by gel electrophoresis analysis. It is filed as functional, cell-based. The conditions noted are these: dose 5-80 nM, time 80.0 min.

Another data set relates to HepG2. As to the kind of experiment: Cytotoxicity against human HepG2 cells at 5 to 20 uM incubated for 72 hrs by MTT assay. The conditions noted are these: hepg2, 72 h, dose 5-20 µM. It is filed as toxicity, cell-based.
Data set [13] in a line: Inhibition of IL-1beta release in PMA-differentiated/ LPS and nigericin stimulated human THP-1 cells pretreated with LPS for 3 hrs followed by incubation with compound for 40 mins and later stimulated with nigericin for 40 mins by ELISA. The format is functional, cell-based.
Data set [14] deals with NACHT, LRR and PYD domains-containing protein 3 (Mus musculus) (UniProt Q8R4B8). As to the kind of experiment: Inhibition of NLRP3 inflammasome activation in LPS stimulated mouse BMDMs assessed as reduction in IL-1beta release at 2 to 31.25 nM pretreated with LPS for 3 hrs followed by compound addition for 40 mins prior to alum stimulation for 6 hrs by ELISA. The format is cell-based. The conditions noted are these: BMDM, dose 2-31.25 nM, time 400.0 min.

For data set [15] the target is unchanged. As to the kind of experiment: Inhibition of NLRP3 inflammasome activation in mouse BMDMs assessed as effect on pro-IL-1beta expression at 2 to 31.25 nM pretreated with LPS for 3 hrs followed by compound addition for 40 mins. It is filed as cell-based. The note with it: BMDM, dose 2-31.25 nM.
Data set [16] in a line: Half-life in BALB/c mouse at 5 mg/kg, iv measured upto 24 hrs by LC-MS/MS analysis. The format is ADME, organism-based. The conditions noted are these: in vivo.

Activity calls are given as the source filed them.

For orientation: half-life means the time needed for the level to fall by half in the phase considered. A higher half-life goes with slow loss. For orientation: inhibition means the share of the control response that was lost under treatment. As usually defined, the Cmax is the peak of the concentration-time curve. The Tmax is the time at which the peak concentration occurs. As usually defined, the bioavailability is the share of a dose that reaches the circulation, judged against a reference dose that is usually intravenous. The low end stands for little systemic uptake, the high end for much systemic uptake. Usually IC50 stands for the point on the concentration scale where inhibition reaches its midpoint.

Sequence of NACHT, LRR and PYD domains-containing protein 3 (Mus musculus) (Q8R4B8 whole entry, the tested form may be a part): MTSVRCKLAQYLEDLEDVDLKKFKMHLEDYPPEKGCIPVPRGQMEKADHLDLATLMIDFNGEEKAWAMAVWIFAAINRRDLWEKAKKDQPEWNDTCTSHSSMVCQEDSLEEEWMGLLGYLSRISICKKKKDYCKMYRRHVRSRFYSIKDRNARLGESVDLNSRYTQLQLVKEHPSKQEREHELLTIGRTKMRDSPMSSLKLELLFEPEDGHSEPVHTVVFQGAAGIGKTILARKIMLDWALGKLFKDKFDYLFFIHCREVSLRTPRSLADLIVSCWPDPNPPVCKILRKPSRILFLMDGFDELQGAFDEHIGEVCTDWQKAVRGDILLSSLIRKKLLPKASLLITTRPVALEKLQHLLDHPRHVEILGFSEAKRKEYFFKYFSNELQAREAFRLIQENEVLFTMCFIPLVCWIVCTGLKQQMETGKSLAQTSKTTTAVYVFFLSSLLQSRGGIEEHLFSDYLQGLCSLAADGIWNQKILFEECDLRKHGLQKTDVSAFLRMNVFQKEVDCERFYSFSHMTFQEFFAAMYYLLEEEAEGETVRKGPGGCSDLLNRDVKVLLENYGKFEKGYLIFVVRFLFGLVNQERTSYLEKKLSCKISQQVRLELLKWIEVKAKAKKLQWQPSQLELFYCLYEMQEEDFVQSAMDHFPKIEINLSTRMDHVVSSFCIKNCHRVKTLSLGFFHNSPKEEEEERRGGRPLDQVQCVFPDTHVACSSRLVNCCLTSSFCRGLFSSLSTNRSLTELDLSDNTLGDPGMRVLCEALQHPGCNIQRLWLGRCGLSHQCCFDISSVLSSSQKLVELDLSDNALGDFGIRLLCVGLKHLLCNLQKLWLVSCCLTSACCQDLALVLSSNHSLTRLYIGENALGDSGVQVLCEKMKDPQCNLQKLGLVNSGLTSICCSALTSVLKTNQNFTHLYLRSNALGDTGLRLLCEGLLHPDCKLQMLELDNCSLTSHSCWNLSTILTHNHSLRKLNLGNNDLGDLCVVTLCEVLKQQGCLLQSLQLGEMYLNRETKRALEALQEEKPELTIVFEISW
Sequence of NLR family CARD domain-containing protein 4 (Mus musculus) (Q3UP24 whole entry, the tested form may be a part): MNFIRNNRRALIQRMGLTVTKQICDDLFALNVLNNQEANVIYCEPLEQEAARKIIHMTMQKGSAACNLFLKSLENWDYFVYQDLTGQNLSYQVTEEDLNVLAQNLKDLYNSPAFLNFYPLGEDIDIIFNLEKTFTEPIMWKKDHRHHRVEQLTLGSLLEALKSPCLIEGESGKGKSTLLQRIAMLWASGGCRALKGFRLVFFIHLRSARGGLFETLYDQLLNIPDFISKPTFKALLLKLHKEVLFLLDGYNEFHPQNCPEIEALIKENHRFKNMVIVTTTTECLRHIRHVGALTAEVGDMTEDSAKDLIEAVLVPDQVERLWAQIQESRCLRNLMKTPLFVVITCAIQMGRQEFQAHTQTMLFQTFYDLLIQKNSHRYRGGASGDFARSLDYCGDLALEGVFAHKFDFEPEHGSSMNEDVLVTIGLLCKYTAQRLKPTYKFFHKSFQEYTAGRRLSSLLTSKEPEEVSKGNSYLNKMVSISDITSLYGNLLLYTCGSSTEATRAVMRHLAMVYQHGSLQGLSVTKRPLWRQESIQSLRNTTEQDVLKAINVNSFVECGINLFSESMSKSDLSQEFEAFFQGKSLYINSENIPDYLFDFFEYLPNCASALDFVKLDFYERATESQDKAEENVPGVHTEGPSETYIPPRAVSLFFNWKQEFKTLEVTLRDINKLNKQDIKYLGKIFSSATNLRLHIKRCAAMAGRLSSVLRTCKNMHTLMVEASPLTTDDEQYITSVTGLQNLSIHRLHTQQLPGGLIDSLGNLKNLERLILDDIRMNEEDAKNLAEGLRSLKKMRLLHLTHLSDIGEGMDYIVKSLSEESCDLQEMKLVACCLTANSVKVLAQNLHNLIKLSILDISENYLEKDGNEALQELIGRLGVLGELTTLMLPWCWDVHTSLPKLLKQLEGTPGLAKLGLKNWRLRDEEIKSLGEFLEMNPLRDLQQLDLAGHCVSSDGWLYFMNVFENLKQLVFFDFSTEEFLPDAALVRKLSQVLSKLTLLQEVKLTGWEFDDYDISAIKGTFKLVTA

Turning to `OCCN1CCC[C@@H](Nc2nnc(-c3ccc4occc4c3O)c3c2C2CCC3CC2)C1`, the half-life in data set [1] was 4.74 h; in data set [16], 3.51 h. In addition, the “inhibition (INH)” value against Cytochrome P450 1A2 is given as “Not Active”. Further, the inhibition at 0.1 µM in data set [2] was found to be 98.9%. The inhibition result in data set [3], in data set [7], in data set [8], in data set [9] and in [15] was “inactive” each time. Besides, the inhibition result in [4] was “Dose-Dependent Effect”. For the same compound, the peak concentration (Cmax) in data set [5] was 746 ng/mL. In addition, in data set [6], the Tmax was 4.98 min. Also, in data set [10], the bioavailability turned out to be 62%. Besides, the inhibition result (in the data set with Mus musculus; in data set [11]; in the data set on THP-1; in data set [14]) was “Active” in each case. Further, in data set [12], the intrinsic clearance was below 12 mL/min. Besides, in the data set on HepG2, the Activity entry is “Non-Toxic”. For the same compound, the IC50 in data set [13] is 3 nM.
